Test results reported in patent US11970509B1, “Water soluble nano-sized imine Ru(III) complex based on 4-aminobenzene sodium sulphonate for biomedical applications” (KING FAISAL UNIVERSITY, priority 2023, dated 2024).
Converted amounts (≈) assume the structure as drawn.

Experiments:
Breast cancer cells line = test: Cytotoxic activity, Sulfo-Rhodamine-B-stain (SRB), breast cancer cell line; conditions: Homo sapiens, 48 h
Aspergillus flavus = test: Antifungal activity, well diffusion method, Aspergillus flavus; assay type: cell-based
Description: To evaluate antimicrobial activity, the fungal strain (Aspergillus flavus), was used. These strains cultured in nutrient agar and Muller-Hinton medium. Fluconazole compounds were used as a standard drug for comparison.
Antifungal activities of the prepared water soluble nano-complex were studied against three fungal cultures using well diffusion method. The tested fungi were inoculated in Sabouraud dextrose broth medium (Hi-Media Mumbai) and incubated at 35° C. for 72 h and subsequently a suspension of about 1.60×10^4-6.00×10^4 c.f.u/ml was introduced agar plates and a sterile glass spreader was used for even distribution of the inoculum. The discs measuring 6 mm in diameter were prepared from Whatman No. 1 filter paper and sterilized by dry heat at 140° C. for 1 h. The sterile discs previously soaked in known concentration of the tested compounds were placed in Sabouraud dextrose Agar (SDA) plates. The plates were inverted and incubated at 35° C. for 7 days. The susceptibility was assessed on the basis of diameter of inhibition against albicans and non-albicans strain of fungi.

Escherichia coli(-ve) = test: Antimicrobial activity, agar well diffusion method, E. coli; assay type: cell-based
Description: To evaluate antimicrobial activity, the bacterial strain Escherichia coli(-ve), was used. These strains cultured in nutrient agar and Muller-Hinton medium. Ofloxacin compounds were used as a standard drug for comparison. The susceptibilities of such growth rate of microorganisms were measured in vitro by agar well diffusion method. The tested nano complex was dissolved in dimethylsulfoxide at different concentrations (10 and 20 mg/ml). 1 cm^3 of a 24 h broth culture containing 10^6 CFU/cm^3 was placed in sterile Petri-dishes. Molten nutrient agar (15 cm^3) maintained at 45° C. was then poured into the Petri-dishes and allowed to solidify. Then holes of 6 mm diameter were formed in the agar using a sterile cork borer and these holes were completely filled with the test solutions. The plates were incubated for 24 h at 37° C. After the incubation period, the zone of inhibition of each well was determined by measuring the zones of growth inhibition (mm) against the test microorganisms with zone reader (Hi Antibiotic zone scale). […] The measurements were made in triplicate for each compound and their average values are reported.

COc1cccc2c1C(=O)c1c(O)c3c(c(O)c1C2=O)C[C@@](O)(C(=O)CO)C[C@@H]3O[C@H]1C[C@H](N)[C@H](O)[C@H](C)O1 [Doxorubicin, reference compound]
IC50 (Breast cancer cells line): 4 µg/mL (≈ 7.36 µM)

OC(Cn1cncn1)(Cn1cncn1)c1ccc(F)cc1F [Fluconazol, reference compound]
MIC (Aspergillus flavus): 1.75 µg/mL (≈ 5.71 µM) | inhibition zone (Aspergillus flavus; well diffusion, 35° C. for 7 days): 28 mm

CC1COc2c(N3CCN(C)CC3)c(F)cc3c(=O)c(C(=O)O)cn1c23 (centres unmarked) [Ofloxacin, reference compound]
MIC (Escherichia coli(-ve); Escherichia coli): 2.5 µg/mL (≈ 6.92 µM) | inhibition zone (Escherichia coli(-ve); agar well diffusion, 24 h at 37° C.): 38 mm
